The target in test [1] is T1, EGFR (aa668-1210, Invitrogen) (Homo sapiens, UniProt P00533).
T1 construct: EGFR (aa668-1210, Invitrogen); purchased Invitrogen
The test can be described thus: Biochemical EGFR inhibition assay (TR-FRET), wild-type EGFR. As to conditions: ATP at Km, 15 min pre-incubation, 60 min reaction; read-out: WT (Km ATP) IC50. A digest of the protocol: (§1)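 ATP at Km; biotin-poly GT substrate; HEPES pH7.5/MgCl2/DTT buffer; 15 min compound preincubation, 60 min reaction, RT. Eu/XL665 HTRF readout, 665/620 ratio; 4-parameter IC50.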

For test [2], the target named is T2, EGFR(L858R_T790M_C797S) (aa695-end, Invitrogen) (Homo sapiens, UniProt P00533, C797S/L858R/T790M).
T2 construct: purchased Invitrogen
The test can be described thus: Biochemical EGFR inhibition assay (TR-FRET), L858R/T790M/C797S mutant. The note with it: ATP at Km, 15 min pre-incubation, 60 min reaction; read-out: LR_TM_CS (Km ATP) IC50. Put shortly:
as §1
On the technique in general: In TR-FRET formats the signal depends on donor and acceptor labels being close together.

Test [3] addresses EGFR(Dell9_T790M_C797S) (aa 669-1210, in house) (Homo sapiens, UniProt P00533, T790M/C797S, form not given). In words: Biochemical EGFR inhibition assay (TR-FRET), Del19/T790M/C797S mutant. The note with it: ATP at Km, 15 min pre-incubation, 60 min reaction; read-out: Del_TM_CS (Km ATP) IC50. Put shortly:
as §1

For the next test, the target named is BaF3-WT cells (Homo sapiens, UniProt P00533). The test can be described thus: Cell antiproliferation assay (CellTiter-Glo), BaF3-WT. In kind it is cell-based. The note with it: 48 h treatment, read-out: BaF3-WT IC50. Put shortly: (§2)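 Cells exposed 48 h to 8 doses from 5-fold serial dilution (500× DMSO stocks from 5 mM), final 0.2% DMSO. Viability by CellTiter-Glo luminescence; IC50 from four-parameter fit of percent inhibition versus concentration.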

The target of the next test is BaF3-LR_TM_CS cells (Homo sapiens, UniProt P00533, T790M/C797S/L858R, cells depend on it). The test can be described thus: Cell antiproliferation assay (CellTiter-Glo), BaF3-LR_TM_CS. As to conditions: 48 h treatment, read-out: BaF3-LR_TM_CS IC50. In kind it is cell-based. A digest of the protocol:
as §2
For orientation: ATP-based viability assays read luminescence as a measure of living cells.

The target of another test is BaF3-Del_TM_CS cells (Homo sapiens, UniProt P00533, T790M/C797S, cells depend on it, form not given). The test can be described thus: Cell antiproliferation assay (CellTiter-Glo), BaF3-Del_TM_CS. In kind it is cell-based. As to conditions: 48 h treatment, read-out: BaF3-Del_TM_CS IC50. A digest of the protocol: as §2

The IC50 is the point on the concentration scale where inhibition reaches its midpoint.

T1 sequence (P00533 668-1210): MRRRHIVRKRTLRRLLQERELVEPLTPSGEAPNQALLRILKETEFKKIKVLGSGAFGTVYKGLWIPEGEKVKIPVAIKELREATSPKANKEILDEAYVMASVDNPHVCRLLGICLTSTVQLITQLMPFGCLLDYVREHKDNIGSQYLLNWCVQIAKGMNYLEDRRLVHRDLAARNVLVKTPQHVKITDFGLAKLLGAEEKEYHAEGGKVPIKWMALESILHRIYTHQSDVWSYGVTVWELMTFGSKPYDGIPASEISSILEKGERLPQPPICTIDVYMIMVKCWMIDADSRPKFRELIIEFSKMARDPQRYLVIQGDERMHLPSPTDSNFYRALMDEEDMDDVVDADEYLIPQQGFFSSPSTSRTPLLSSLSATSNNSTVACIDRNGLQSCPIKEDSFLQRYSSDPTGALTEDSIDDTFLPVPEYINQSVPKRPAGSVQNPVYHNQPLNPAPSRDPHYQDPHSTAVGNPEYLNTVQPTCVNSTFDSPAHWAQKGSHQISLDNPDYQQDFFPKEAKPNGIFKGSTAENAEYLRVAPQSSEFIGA
Chain of BaF3-WT cells (P00533 whole entry, change not shown): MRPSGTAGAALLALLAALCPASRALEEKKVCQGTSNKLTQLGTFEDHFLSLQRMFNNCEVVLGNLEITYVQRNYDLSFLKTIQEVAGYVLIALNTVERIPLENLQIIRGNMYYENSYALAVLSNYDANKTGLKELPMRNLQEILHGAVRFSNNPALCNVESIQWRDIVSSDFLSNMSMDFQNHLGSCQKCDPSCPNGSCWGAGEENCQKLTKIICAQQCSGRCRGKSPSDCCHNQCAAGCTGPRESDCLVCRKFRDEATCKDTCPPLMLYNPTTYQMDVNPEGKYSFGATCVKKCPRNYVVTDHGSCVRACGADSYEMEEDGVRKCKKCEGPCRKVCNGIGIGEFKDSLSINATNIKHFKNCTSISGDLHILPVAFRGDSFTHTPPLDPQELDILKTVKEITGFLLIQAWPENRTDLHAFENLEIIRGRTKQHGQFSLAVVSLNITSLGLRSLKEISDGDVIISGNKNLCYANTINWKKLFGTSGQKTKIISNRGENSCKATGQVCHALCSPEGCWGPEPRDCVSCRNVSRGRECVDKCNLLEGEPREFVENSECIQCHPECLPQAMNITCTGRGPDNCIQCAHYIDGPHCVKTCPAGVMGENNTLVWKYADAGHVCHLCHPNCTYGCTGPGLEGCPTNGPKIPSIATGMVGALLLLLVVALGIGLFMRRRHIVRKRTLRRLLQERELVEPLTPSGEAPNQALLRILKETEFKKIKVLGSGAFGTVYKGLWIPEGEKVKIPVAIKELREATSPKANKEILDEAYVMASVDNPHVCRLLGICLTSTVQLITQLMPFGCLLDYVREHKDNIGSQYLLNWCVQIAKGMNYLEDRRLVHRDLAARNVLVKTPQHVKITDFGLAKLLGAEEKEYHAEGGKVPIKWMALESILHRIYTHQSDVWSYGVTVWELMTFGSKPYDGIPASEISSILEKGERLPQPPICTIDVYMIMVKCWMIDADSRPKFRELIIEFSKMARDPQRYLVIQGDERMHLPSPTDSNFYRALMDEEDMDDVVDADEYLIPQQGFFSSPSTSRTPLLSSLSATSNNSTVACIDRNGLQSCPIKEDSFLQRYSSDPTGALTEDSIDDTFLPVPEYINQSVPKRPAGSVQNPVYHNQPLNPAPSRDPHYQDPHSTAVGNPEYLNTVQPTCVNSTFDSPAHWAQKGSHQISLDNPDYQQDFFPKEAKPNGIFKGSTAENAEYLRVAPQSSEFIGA
Chain of BaF3-LR_TM_CS cells (P00533 whole entry T790M/C797S/L858R): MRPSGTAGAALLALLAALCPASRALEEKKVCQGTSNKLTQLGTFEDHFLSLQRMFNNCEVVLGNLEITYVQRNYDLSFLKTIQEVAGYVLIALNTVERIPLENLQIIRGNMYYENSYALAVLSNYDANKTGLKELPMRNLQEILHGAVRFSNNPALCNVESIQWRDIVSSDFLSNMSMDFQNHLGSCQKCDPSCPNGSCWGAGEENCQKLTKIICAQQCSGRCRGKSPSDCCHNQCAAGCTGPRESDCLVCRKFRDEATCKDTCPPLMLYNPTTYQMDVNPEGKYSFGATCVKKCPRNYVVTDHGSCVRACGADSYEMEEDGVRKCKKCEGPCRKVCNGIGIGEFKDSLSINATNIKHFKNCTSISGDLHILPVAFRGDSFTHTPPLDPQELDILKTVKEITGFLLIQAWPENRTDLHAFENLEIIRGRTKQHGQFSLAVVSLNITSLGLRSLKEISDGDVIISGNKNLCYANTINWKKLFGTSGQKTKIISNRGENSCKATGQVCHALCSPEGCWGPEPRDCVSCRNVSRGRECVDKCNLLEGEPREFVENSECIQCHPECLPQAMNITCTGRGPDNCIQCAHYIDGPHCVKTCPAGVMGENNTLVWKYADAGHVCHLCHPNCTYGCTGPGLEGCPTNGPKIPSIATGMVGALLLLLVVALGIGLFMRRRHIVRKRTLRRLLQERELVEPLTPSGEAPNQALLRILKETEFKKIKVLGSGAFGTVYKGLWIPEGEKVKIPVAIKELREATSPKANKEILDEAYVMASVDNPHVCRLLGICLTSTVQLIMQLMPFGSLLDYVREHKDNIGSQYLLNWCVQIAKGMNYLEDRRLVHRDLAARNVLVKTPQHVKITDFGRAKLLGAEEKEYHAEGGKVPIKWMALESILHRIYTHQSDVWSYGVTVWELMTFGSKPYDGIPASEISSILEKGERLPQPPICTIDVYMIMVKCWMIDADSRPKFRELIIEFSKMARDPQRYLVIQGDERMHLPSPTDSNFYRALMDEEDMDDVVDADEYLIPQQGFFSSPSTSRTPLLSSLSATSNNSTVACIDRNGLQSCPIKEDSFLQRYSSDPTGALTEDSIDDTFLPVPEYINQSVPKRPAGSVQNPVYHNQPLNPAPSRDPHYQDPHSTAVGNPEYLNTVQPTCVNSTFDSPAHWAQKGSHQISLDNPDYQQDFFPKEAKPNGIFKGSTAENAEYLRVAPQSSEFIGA
T2 sequence (P00533 695-1210 T790M/C797S/L858R): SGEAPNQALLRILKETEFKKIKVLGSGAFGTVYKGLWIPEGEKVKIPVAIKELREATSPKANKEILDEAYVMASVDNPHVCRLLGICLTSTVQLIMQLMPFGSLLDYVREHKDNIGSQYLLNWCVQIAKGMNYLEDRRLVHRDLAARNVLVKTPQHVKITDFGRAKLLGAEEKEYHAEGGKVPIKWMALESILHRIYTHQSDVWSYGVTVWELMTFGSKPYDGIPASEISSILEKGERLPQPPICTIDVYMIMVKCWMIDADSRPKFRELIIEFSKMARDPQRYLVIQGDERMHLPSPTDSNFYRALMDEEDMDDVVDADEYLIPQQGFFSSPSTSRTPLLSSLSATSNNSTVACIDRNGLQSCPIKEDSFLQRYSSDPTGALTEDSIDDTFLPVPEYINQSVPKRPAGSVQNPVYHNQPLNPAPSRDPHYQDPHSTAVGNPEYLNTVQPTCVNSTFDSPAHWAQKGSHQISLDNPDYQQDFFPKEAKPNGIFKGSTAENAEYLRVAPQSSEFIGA
Chain of BaF3-Del_TM_CS cells (P00533 with tags, fused parts or gaps DEL746-750/T790M/C797S, form open): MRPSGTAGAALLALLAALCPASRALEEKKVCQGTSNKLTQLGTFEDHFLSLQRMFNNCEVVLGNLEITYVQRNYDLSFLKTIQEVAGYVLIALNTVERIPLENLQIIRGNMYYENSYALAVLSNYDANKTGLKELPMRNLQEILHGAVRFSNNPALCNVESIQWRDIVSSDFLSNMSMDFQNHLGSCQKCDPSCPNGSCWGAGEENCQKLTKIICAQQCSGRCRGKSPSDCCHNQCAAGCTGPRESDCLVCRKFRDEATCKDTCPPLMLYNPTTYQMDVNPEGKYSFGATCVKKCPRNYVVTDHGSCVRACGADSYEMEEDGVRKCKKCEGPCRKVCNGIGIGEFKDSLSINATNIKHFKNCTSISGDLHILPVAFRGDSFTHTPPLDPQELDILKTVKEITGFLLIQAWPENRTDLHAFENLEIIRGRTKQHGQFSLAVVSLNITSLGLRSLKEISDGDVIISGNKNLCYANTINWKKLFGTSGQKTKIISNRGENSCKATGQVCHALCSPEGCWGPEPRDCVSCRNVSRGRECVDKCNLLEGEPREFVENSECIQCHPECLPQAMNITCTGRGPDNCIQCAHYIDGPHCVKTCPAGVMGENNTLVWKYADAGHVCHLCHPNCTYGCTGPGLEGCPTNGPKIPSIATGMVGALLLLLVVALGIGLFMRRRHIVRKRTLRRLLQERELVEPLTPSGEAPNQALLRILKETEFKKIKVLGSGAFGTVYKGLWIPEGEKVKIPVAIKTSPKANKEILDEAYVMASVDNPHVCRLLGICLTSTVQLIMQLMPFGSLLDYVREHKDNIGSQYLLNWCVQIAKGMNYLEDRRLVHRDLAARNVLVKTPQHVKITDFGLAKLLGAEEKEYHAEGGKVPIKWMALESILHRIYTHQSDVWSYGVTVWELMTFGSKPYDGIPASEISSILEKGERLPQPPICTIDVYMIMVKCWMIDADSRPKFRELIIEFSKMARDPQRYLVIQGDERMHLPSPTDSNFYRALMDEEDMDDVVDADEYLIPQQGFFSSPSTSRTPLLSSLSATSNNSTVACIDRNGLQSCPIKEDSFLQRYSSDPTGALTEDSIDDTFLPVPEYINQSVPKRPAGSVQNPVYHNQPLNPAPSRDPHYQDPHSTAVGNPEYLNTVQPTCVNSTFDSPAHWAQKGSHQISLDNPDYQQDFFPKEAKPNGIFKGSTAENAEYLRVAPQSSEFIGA

Turning to `COc1cc(C2CCN(CCO)CC2)c(C)cc1Nc1nc(Nc2cccc3c2N(S(C)(=O)=O)CC3)c2cc[nH]c2n1` [Example 108, 2-(4-(5-methoxy-2-methyl-4-((4-((1-(methylsulfonyl)indolin-7-yl)amino)-7H-pyrrolo[2,3-d]pyrimidin-2-yl)amino)phenyl)piperidin-1-yl)ethan-1-ol], the IC50 came to 104 nM in test [1], 1.9 nM in test [2] and 2.2 nM in test [3]. The GI50 on BaF3-WT cells was 2140 nM; at BaF3-LR_TM_CS cells it was 464 nM; on BaF3-Del_TM_CS cells, 181 nM.
In the case of `CN1CCN(c2ccc(Nc3nc(Nc4cccc5c4N(S(C)(=O)=O)CC5)c4cc[nH]c4n3)cn2)CC1` [Example 123, N^2-(6-(4-methylpiperazin-1-yl)pyridin-3-yl)-N^4-(1-(methylsulfonyl)indolin-7-yl)-7H-pyrrolo[2,3-d]pyrimidine-2,4-diamine], the 50% inhibitory concentration (IC50) came to 573 nM in test [1], 4.8 nM in test [2] and 6.3 nM in test [3]. The GI50 at BaF3-WT cells came out at 376 nM; on BaF3-LR_TM_CS cells, 169 nM; at BaF3-Del_TM_CS cells, 64.3 nM.
In the case of `CN(C)C1CCN(c2ccc(Nc3nc(Nc4cccc5c4N(S(C)(=O)=O)CC5)c4cc[nH]c4n3)c3c2CCO3)CC1` [Example 124, N^2-(4-(4-(dimethylamino)piperidin-1-yl)-2,3-dihydrobenzofuran-7-yl)-N^4-(1-(methylsulfonyl)indolin-7-yl)-7H-pyrrolo[2,3-d]pyrimidine-2,4-diamine], the IC50 in test [1] amounted to 107 nM; in test [2], 1 nM; in test [3] it was 1 nM. The GI50 on BaF3-WT cells was determined as 460 nM; on BaF3-LR_TM_CS cells, 106 nM; on BaF3-Del_TM_CS cells, 39.1 nM.
For `CN1CCN(C2CCN(c3ccc(Nc4nc(Nc5cccc6c5N(S(C)(=O)=O)CC6)c5cc[nH]c5n4)c4c3CCO4)CC2)CC1` [Example 125, N^2-(4-(4-(4-methylpiperazin-1-yl)piperidin-1-yl)-2,3-dihydrobenzofuran-7-yl)-N^4-(1-(methylsulfonyl)indolin-7-yl)-7H-pyrrolo[2,3-d]pyrimidine-2,4-diamine], the results for the IC50 in test [1], in test [2] and in test [3] were 106 nM, 1.2 nM and 1.6 nM, respectively. Besides, the GI50 on BaF3-WT cells amounted to 394 nM; at BaF3-LR_TM_CS cells, 61.3 nM; on BaF3-Del_TM_CS cells, 38.3 nM.

The record behind these values is US20260167619A2, “INDOLINE COMPOUNDS AND DERIVATIVES AS EGFR INHIBITORS” (BeOne Medicines I GmbH, priority 2020, published 2026).
